In patent US7410971B2, “1,2-di(cyclic)substituted benzene compounds” (Eisai R&D Management Co., Ltd., priority 2003, dated 2008):
pIC50: −log10 of the molar value.

What was measured:
DSS-induced colitis = DSS-induced colitis model; type: in vivo, Balb/c mice; settings: 30 mg/kg orally once a day for 5-7 successive days; 1-3% DSS in water for 5-7 days
From the text: Evaluation of Compounds in DSS-Induced Colitis Model
A 1-3% solution of dextran sulfate sodium (hereinafter abbreviated as DSS; ICN) in purified water (Otsuka Pharmaceutical) was fed freely to 6- to 7-week-old male Balb/c mice (Charles River Japan) for 5-7 days to induce colitis. Disease Activity Index (hereinafter abbreviated as DAI) scored based on fecal hardness, blood content in feces and body weight change, the number of neutrophils infiltrating the colon and the length of the colon were used as indexes to evaluate compounds. Each compound was suspended or dissolved in an aqueous solution containing 0.5% methyl cellulose (Wako), and orally administered at 30 mg/kg once a day, for 5-7 successive days.

[1] = tested on: colon-infiltrating neutrophils (myeloperoxidase enzyme activity); assay: Oxazolone-induced colon neutrophil infiltration model; type: in vivo, Balb/c mice; settings: Mus musculus, po, 30 mg/kg orally 30 minutes prior to intrarectal oxazolone, colon myeloperoxidase activity 4 hours after, vs oxazolone control group, read-out: Inhibitory rate (%)
Protocol: Evaluation of Compounds in Oxazolone-Induced Colon Neutrophil Infiltration Model
<Sensitization with Oxazolone>
Five- to six-week-old male Balb/c mice (Charles River Japan) were shaven at the abdomen to an approximately 2 cm square area. A 100% ethanol solution containing 3% 4-ethoxymethylene-2-phenyl-2-oxazolin-5-one (hereinafter referred to as “oxazolone”; Sigma) was applied at 150 μl onto the abdomen of each mouse.
<Preparation of Emulsion Containing Oxazolone>
Distilled water (Otsuka Pharmaceutical) was added in an equivalent volume to 100% peanut oil (Kanto Kagaku) containing 1% oxazolone, and the components were vigorously mixed with a glass syringe (Top Co.), to prepare an emulsion containing 0.5% oxazolone.
<Induction with Oxazolone>
The mice were fasted on the 3rd day after oxazolone sensitization, and were injected with 100 μl of the emulsion containing 0.5% oxazolone prepared in the way described above intrarectally at a site approximately 3 cm from the anus under ether anesthesia on the 4th day.
<Colon-Infiltrating Neutrophil Assay>
Each compound was suspended or dissolved in an aqueous solution containing 0.5% methyl cellulose (Wako), and orally administered at 30 mg/kg 30 minutes prior to the intrarectal injection of oxazolone emulsion. Four hours after the intrarectal injection of oxazolone, mice were sacrificed by cervical dislocation, and colons were extirpated, dissected in the longitudinal direction, washed with physiological saline, and transferred to ice-cooled plastic centrifugation tubes. After adding 1 ml of 50 mM potassium phosphate buffer (hereinafter abbreviated as KPB) (pH 6.0) to the tube, and the tissue were homogenized with PHYSCOTRON (Microtec Nition Co., Ltd.), 2 ml of 50 mM KPB (pH 6.0) was added and the mixture was centrifuged at 3000 rpm, 4° C. for 10 minutes and the supernatant was removed. To the resultant precipitate was added 1 ml of 50 mM KPB (pH 6.0) containing 0.5% hexadecyltrimethyl-ammonium bromide (Sigma), and freeze-thawed 3 to 5 times using liquid nitrogen and hot water, centrifuged at 3000 rpm, 4° C. for 10 minutes to yield a supernatant. The myeloperoxidase enzyme activity in the supernatant was assayed in the following manner. Specifically, to 10 μl of the obtained supernatant was added 200 μl of 50 mM KPB (pH6.0) containing 0.017% o-dianisidine (Sigma) and 0.0005% hydrogen peroxide (Wako), incubated at 37° C., and the change in absorbance at 450 nm was continuously measured for 1 minute using an EL340 Automated Microplate Reader (BIO-TEK) in kinetic mode. The units were the rate of change in absorbance per minute (mO.D./min.). With regard to the effect of each compound, the inhibitory rate (%) with respect to the oxazolone control group, i.e. the oxazolone-injected/compound-free group, was shown in the table 3.

Jurkat cells = assay: Jurkat cell adhesion system (adhesion to immobilized human fibronectin, PMA-stimulated); type: cell-based; settings: concentration inhibiting by 50% the PMA-stimulated increase in number of adhered Jurkat cells on human fibronectin
Protocol: Evaluation of Compounds in Jurkat Cell Adhesion System
<Immobilization of Human Fibronectin in 96-Well Plate>
Human fibronectin (Becton Dickinson Biosciences) was diluted with phosphate-buffered saline (hereinafter abbreviated as PBS; Sigma) to 0.1-0.01 μg/ml, and the diluted solution was added to a 96-well plate (Becton Dickinson) at 50μ/well, and allowed to stand overnight at 4° C. On the following day, the supernatant was removed from the plate, and then PBS containing 1% bovine serum albumin (hereinafter abbreviated as BSA; Sigma) was added thereto at 100 μl/well and incubation was performed at 37° C. for 2 hours in a CO2 incubator (Hirasawa).
The supernatant was removed from each plate and Jurkat cells suspended in RPMI-1640 (Sigma) containing 1 mg/ml BSA were added at 80 μl/well for 2.5×10^5 cells/well. The compound diluted to different concentrations with RPMI-1640 containing 1 mg/ml BSA was immediately added at 10 μl/well, and then 100 nM phorbol myristate acetate (hereinafter abbreviated as PMA; Sigma) in RPMI-1640 containing 1 mg/ml BSA was added at 10 μl/well and the plate was incubated in a CO2 incubator at 37° C. for 45-60 minutes. The supernatant was removed from the plate and each well was washed several times with 100 μl/well of RPMI-1640, after which 50 mM citrate buffer (pH 5.0) containing 3.75 mM p-nitrophenol-N-acetyl-β-D-glucosaminide (Sigma) and 0.25% Triton X-100 (Sigma) were added at 60 μl/well, and the mixture was placed in a CO2 incubator and incubated at 37° C. for 45 minutes. After incubation, 50 mM glycine buffer (pH 10.4) containing 5 mM EDTA was added at 90 μl/well, and the absorbance at 405 nm was measured with an EL340 Automated Microplate Reader (BIO-TEK) to determine the adhered cell count. The concentration of each compound which inhibited the increase in the number of adhered cells by the PMA-stimulation by 50% was recorded as the IC50 (μM).

SMILES	improvement in comparison with the DSS control group (DAI, number of neutrophils infiltrating the colon, length of the colon) (DSS-induced colitis)	inhibition in vivo at 30 mg/kg [1]	pIC50 (Jurkat cells)
CCCCN1CCN(c2ccc(N3CCOCC3)cc2C2=CCC(C(C)(C)C)CC2)CC1.Cl (racemic) [Example 18, 4-[3-(4-t-Butylcyclohex-1-enyl)-4-(4-butylpiperazine-1-yl)phenyl]morpholine hydrochloride]	particularly good improvement	50%	–
COC1CCN(c2ccc(N3CCN(CC4CC4)CC3)c(C3=CCC(C(C)(C)C)CC3)c2)CC1.Cl (racemic) [Example 20, 1-[2-(4-t-Butylcyclohex-1-enyl)-4-(4-methoxypiperidin-1-yl)phenyl]-4-cyclopropylmethylpiperazine hydrochloride]	particularly good improvement	38%	–
CCCCCN1CCN(c2cc(OC)ccc2C2CCC(C)(C)CC2)CC1.Cl [Example 1, 1-[2-(4,4-Dimethylcyclohexyl)-5-methoxyphenyl]-4-pentylpiperazine hydrochloride]	particularly good improvement	45%	–
CC1(C)CC(c2ccccc2N2CCN(CC3CC3)CC2)CC(C)(C)C1.Cl [Example 9, 1-Cyclopropylmethyl-4-[2-(3,3,5,5-tetramethylcyclohexyl)phenyl]piperazine hydrochloride]	–	35%	–
CCNC(=O)CN1CCN(c2ccccc2C2CCC(C(C)(C)C)CC2)CC1.Cl (stereo not drawn) [Example 10, 2-{4-[2-(4-t-Butylcyclohexyl)phenyl]piperazin-1-yl}-N-ethylacetamide hydrochloride]	–	–	5.33
CCCCN1CCN(c2ccccc2C2CCC(C(C)(C)C)CC2)CC1.Cl (stereo not drawn) [Example 15, 1-Butyl-4-[2-(4-t-butylcyclohexyl)phenyl]piperazine hydrochloride]	particularly good improvement	–	5.64
CCC(=O)CN1CCN(c2ccccc2C2CCC(C)(C)CC2)CC1.Cl [Example 17, 1-{4-[2-(4,4-Dimethylcyclohexyl)phenyl]piperazin-1-yl}butan-2-one hydrochloride]	particularly good improvement	30%	–
COCCN1CCN(c2ccccc2C2CCC(C(C)(C)C)CC2)CC1.Cl (stereo not drawn) [Example 19, 1-[2-(4-t-Butylcyclohexyl)phenyl]-4-(2-methoxyethyl)piperazine hydrochloride]	particularly good improvement	–	–
CC1(C)C=C(c2ccccc2N2CCN(CC3CCOCC3)CC2)CC(C)(C)C1.Cl [Example 22, 1-(Tetrahydropyran-4-ylmethyl)-4-[2-(3,3,5,5-tetramethylcyclohex-1-enyl)phenyl]piperazine hydrochloride]	particularly good improvement	28%	–
CCCN1CCN(c2ccc(N3CCOCC3)cc2C2=CC(C)(C)CC(C)(C)C2)CC1.Cl [Example 28, 4-[4-(4-Propylpiperazin-1-yl)-3-(3,3,5,5-tetramethylcyclohex-1-enyl)phenyl]morpholine hydrochloride]	particularly good improvement	48%	–
CCC(=O)CN1CCN(c2ccc(N3CCOCC3)cc2C2=CCC(CC)(CC)CC2)CC1.Cl [Example 30, 1-{4-[2-(4,4-Diethylcyclohex-1-enyl)-4-morpholin-4-ylphenyl]piperazin-1-yl}butan-2-one hydrochloride]	particularly good improvement	23%	–
CCCN1CCN(c2ccccc2C2CC(C)(C)CC(C)(C)C2)CC1.Cl [Example 31, 1-Propyl-4-[2-(3,3,5,5-tetramethylcyclohexyl)phenyl]piperazine hydrochloride]	particularly good improvement	38%	–
CCCCN1CCN(c2ccc(N3CCC(OC)CC3)cc2C2CC(C)(C)CC(C)(C)C2)CC1.Cl [Example 32, 1-Butyl-4-[4-(4-methoxypiperidin-1-yl)-2-(3,3,5,5-tetramethylcyclohexyl)phenyl]piperazine hydrochloride]	particularly good improvement	51%	–
CC(C)CN1CCN(c2ccccc2C2=CCC3(CC2)CC3)CC1.Cl [Example 34, 1-Isobutyl-4-(2-spiro[2.5]oct-5-en-6-ylphenyl)piperazine hydrochloride]	particularly good improvement	–	–
